Measured values taken from patent US11472799B2, “Serine threonine kinase (AKT) degradation / disruption compounds and methods of use” (Icahn School of Medicine at Mount Sinai, priority 2018, dated 2022).

What follows are compounds tested on AKT (assay: Western blot of AKT protein levels in PC-3 cells). Conditions: 1 μM (FIGS. 11 and 12).
Type: cell-based, human
Description: (§1) PC-3, U87MG, HCC1143, MDA-MB-231, MDA-MB-468, BT474 and MCF-7 cell lines were purchased from ATCC. Cell lines were regularly tested in the lab for mycoplasma. All cells were cultured at 37° C. and 5% CO2. PC-3, U87MG, MDA-MB-231, MCF-7 and BT474 cells were cultured in 1×DMEM (Corning, 10-013-CV) with 10% fetal bovine serum (Atlanta Biologicals S11150) and 1× Penicillin/Streptomycin. HCC1143 cells were cultured in RPMI (Corning, 10-040-CV) medium with 10% fetal bovine serum (Atlanta Biologicals S11150) and 1× Penicillin/Streptomycin. Cells were split using 0.05% or 0.25% trypsin (Corning 25-051-Cl or 25-053-Cl, respectively) before they reached full confluence and media was changed every 3-4 days. Cells were treated with compounds individually at different concentrations for 24 hrs. Cells were treated with DMSO, VHL, or PML alone as controls.
(§2) Cells were lysed in 2× sample buffer (125 mM Tris-HCl at pH 6.8, 10% βME, 2% SDS, 20% glycerol, 0.05% Bromophenol Blue, 8 M urea). Protein lysates were loaded into 4-12% Bis-Tris gels and resolved by electrophoresis. Samples were then blotted on PVDF membrane (Millipore IPVH00010) using the wet transfer technique (Invitrogen). Membranes were blocked in 5% milk-TBST for 1 hour, washed in TBST for 10 min, and incubated in primary antibody in 5% milk-TBST or 5% BSA-TBST at 4° C. for 16 h. Membranes were rinsed (3×6 min) in TBST and incubated in horseradish peroxidase-conjugated secondary antibodies in 5% milk-TBST for 1 hour and rinsed again in TBST (3×6 min). Membranes were visualized using the chemiluminescence system (Thermo 34080, 37075) on autoradiography film (Denville E3018). Primary Antibodies: R-actin (Sigma A5316), p-AKT (Ser473 CST-9721), total AKT (CST-9272), p-S6 (Ser240/244, CST-5364), p-PRAS40 (Thr246, CST-2997). Secondary Antibodies: Mouse (Thermo 31432), Rabbit (Thermo 31460).

Structure (SMILES) | suppression of AKT protein level and AKT activity
Cc1ncsc1-c1ccc(CNC(=O)[C@@H]2C[C@@H](O)CN2C(=O)[C@@H](NC(=O)CCCCCCCC(=O)NCCc2cccc(-c3ccc4nc(-c5cccnc5N)n(-c5ccc(C6(N)CCC6)cc5)c4n3)c2)C(C)(C)C)cc1 [XF067-45, N^1-(3-(3-(4-(1-aminocyclobutyl)phenyl)-2-(2-aminopyridin-3-yl)-3H-imidazo[4,5-b]pyridin-5-yl)phenethyl)-N^9-((S)-1-((2S,4R)-4-hydroxy-2-((4-(4-methylthiazol-5-yl)benzyl)carbamoyl)pyrrolidin-1-yl)-3,3-dimethyl-1-oxobutan-2-yl)nonanediamide] | effective in suppressing AKT protein level and AKT activity
CCn1c(-c2nonc2N)nc2c(C#CC(C)(C)O)ncc(OCCCNCCCC(=O)NCCCCCCCCNc3cccc4c3C(=O)N(C3CCC(=O)NC3=O)C4=O)c21 (centres unmarked) [XF067-113, 4-((3-((2-(4-amino-1,2,5-oxadiazol-3-yl)-1-ethyl-4-(3-hydroxy-3-methylbut-1-yn-1-yl)-1H-imidazo[4,5-c]pyridin-7-yl)oxy)propyl)amino)-N-(8-((2-(2,6-dioxopiperidin-3-yl)-1,3-dioxoisoindolin-4-yl)amino)octyl)butanamide] | effective in suppressing AKT protein level and AKT activity
Cc1ncsc1-c1ccc(CNC(=O)[C@@H]2C[C@@H](O)CN2C(=O)[C@@H](NC(=O)CCCCCCCCNC(=O)CCc2cccc(-c3ccc4nc(-c5cccnc5N)n(-c5ccc(C6(N)CCC6)cc5)c4n3)c2)C(C)(C)C)cc1 [XF067-16, (2S,4R)-1-((S)-2-(9-(3-(3-(3-(4-(1-aminocyclobutyl)phenyl)-2-(2-aminopyridin-3-yl)-3H-imidazo[4,5-b]pyridin-5-yl)phenyl)propanamido)nonanamido)-3,3-dimethylbutanoyl)-4-hydroxy-N-(4-(4-methylthiazol-5-yl)benzyl)pyrrolidine-2-carboxamide] | effective in suppressing AKT protein level and AKT activity
Cc1ncsc1-c1ccc(CNC(=O)[C@@H]2C[C@@H](O)CN2C(=O)[C@@H](NC(=O)CCCCCCCCCC(=O)NCCc2cccc(-c3ccc4nc(-c5cccnc5N)n(-c5ccc(C6(N)CCC6)cc5)c4n3)c2)C(C)(C)C)cc1 [XF067-47, N^1-(3-(3-(4-(1-aminocyclobutyl)phenyl)-2-(2-aminopyridin-3-yl)-3H-imidazo[4,5-b]pyridin-5-yl)phenethyl)-N^11-((S)-1-((2S,4R)-4-hydroxy-2-((4-(4-methylthiazol-5-yl)benzyl)carbamoyl)pyrrolidin-1-yl)-3,3-dimethyl-1-oxobutan-2-yl)undecanediamide] | effective in suppressing AKT protein level and AKT activity
CCn1c(-c2nonc2N)nc2c(C#CC(C)(C)O)ncc(OCCCNCCCC(=O)NCCCCCCCC(=O)N[C@H](C(=O)N3C[C@H](O)C[C@H]3C(=O)NCc3ccc(-c4scnc4C)cc3)C(C)(C)C)c21 [XF067-98, (2S,4R)-1-((S)-2-(8-(4-((3-((2-(4-amino-1,2,5-oxadiazol-3-yl)-1-ethyl-4-(3-hydroxy-3-methylbut-1-yn-1-yl)-1H-imidazo[4,5-c]pyridin-7-yl)oxy)propyl)amino)butanamido)octanamido)-3,3-dimethylbutanoyl)-4-hydroxy-N-(4-(4-methylthiazol-5-yl)benzyl)pyrrolidine-2-carboxamide] | effective in suppressing AKT protein level and AKT activity

Same assay, conditions: 1 μM for 24 h (FIGS. 11, 12)

Structure (SMILES) | AKT protein levels
CCn1c(-c2nonc2N)nc2c(C#CC(C)(C)O)ncc(OC[C@H]3CCCNC3)c21 [GSK690693, 4-(2-(4-amino-1,2,5-oxadiazol-3-yl)-1-ethyl-7-{[(3S)-3-piperidinylmethyl]oxy}-1H-imidazo[4,5-c]pyridin-4-yl)-2-methyl-3-butyn-2-ol, reference compound] | no effect

Each compound was assayed on AKT (assay: Western blot of AKT protein levels and downstream signaling in BT474 cells). Conditions: Western blot (FIGS. 1, 3, 4).
Type: cell-based, human
Description: as §1, §2

Structure (SMILES) | suppression of AKT protein level and AKT activity
C[C@@H]1C[C@@H](O)c2ncnc(N3CCN(C(=O)[C@H](CNCCC(=O)NCCOCCOCCOCCOCCNc4cccc5c4C(=O)N(C4CCC(=O)NC4=O)C5=O)c4ccc(Cl)cc4)CC3)c21 (stereo partly drawn) [XF038-176A, 3-(((S)-2-(4-chlorophenyl)-3-(4-((5R,7R)-7-hydroxy-5-methyl-6,7-dihydro-5H-cyclopenta[d]pyrimidin-4-yl)piperazin-1-yl)-3-oxopropyl)amino)-N-(14-((2-(2,6-dioxopiperidin-3-yl)-1,3-dioxoisoindolin-4-yl)amino)-3,6,9,12-tetraoxatetradecyl)propanamide] | effective in suppressing both AKT protein level and AKT activity
Cc1ncsc1-c1ccc([C@H](C)NC(=O)[C@@H]2C[C@@H](O)CN2C(=O)[C@@H](NC(=O)CCCCCCCCCC(=O)N2CCN(CC[C@H](NC(=O)C3(N)CCN(c4ncnc5[nH]ccc45)CC3)c3ccc(Cl)cc3)CC2)C(C)(C)C)cc1 [XF050-167, 4-amino-N-((S)-1-(4-chlorophenyl)-3-(4-(11-(((S)-1-((2S,4R)-4-hydroxy-2-(((S)-1-(4-(4-methylthiazol-5-yl)phenyl)ethyl)carbamoyl)pyrrolidin-1-yl)-3,3-dimethyl-1-oxobutan-2-yl)amino)-11-oxoundecanoyl)piperazin-1-yl)propyl)-1-(7H-pyrrolo[2,3-d]pyrimidin-4-yl)piperidine-4-carboxamide] | effective in suppressing both AKT protein level and AKT activity
C[C@@H]1C[C@@H](O)c2ncnc(N3CCN(C(=O)[C@H](CNCCC(=O)NCCOCCOCCNc4cccc5c4C(=O)N(C4CCC(=O)NC4=O)C5=O)c4ccc(Cl)cc4)CC3)c21 (stereo partly drawn) [XF048-7, 3-(((S)-2-(4-chlorophenyl)-3-(4-((5R,7R)-7-hydroxy-5-methyl-6,7-dihydro-5H-cyclopenta[d]pyrimidin-4-yl)piperazin-1-yl)-3-oxopropyl)amino)-N-(2-(2-(2-((2-(2,6-dioxopiperidin-3-yl)-1,3-dioxoisoindolin-4-yl)amino)ethoxy)ethoxy)ethyl) propanamide] | effective in suppressing both AKT protein level and AKT activity
Cc1ncsc1-c1ccc(CNC(=O)[C@@H]2C[C@@H](O)CN2C(=O)[C@@H](NC(=O)CCCCCCCCCCCCC(=O)N2CCN(CC[C@H](NC(=O)C3(N)CCN(c4ncnc5[nH]ccc45)CC3)c3ccc(Cl)cc3)CC2)C(C)(C)C)cc1 [XF050-145, 4-amino-N-((S)-1-(4-chlorophenyl)-3-(4-(14-(((S)-1-((2S,4R)-4-hydroxy-2-((4-(4-methylthiazol-5-yl)benzyl)carbamoyl)pyrrolidin-1-yl)-3,3-dimethyl-1-oxobutan-2-yl)amino)-14-oxotetradecanoyl)piperazin-1-yl)propyl)-1-(7H-pyrrolo[2,3-d]pyrimidin-4-yl)piperidine-4-carboxamide] | effective in suppressing both AKT protein level and AKT activity
Cc1ncsc1-c1ccc(CNC(=O)[C@@H]2C[C@@H](O)CN2C(=O)[C@@H](NC(=O)CCCCCCC(=O)N2CCN(CC[C@H](NC(=O)C3(N)CCN(c4ncnc5[nH]ccc45)CC3)c3ccc(Cl)cc3)CC2)C(C)(C)C)cc1 [XF050-18, 4-amino-N-((S)-1-(4-chlorophenyl)-3-(4-(8-(((S)-1-((2S,4R)-4-hydroxy-2-((4-(4-methylthiazol-5-yl)benzyl)carbamoyl)pyrrolidin-1-yl)-3,3-dimethyl-1-oxobutan-2-yl)amino)-8-oxooctanoyl)piperazin-1-yl)propyl)-1-(7H-pyrrolo[2,3-d]pyrimidin-4-yl)piperidine-4-carboxamide] | effective in suppressing both AKT protein level and AKT activity
